In test [1] the test system is Chromobacterium violaceum ω-transaminase (SEQ ID NO: 8). Briefly: ω-transaminase enzyme activity assay, amine substrate plus pyruvate to L-alanine (cell free extract). In kind it is biochemical. The conditions noted are these: reverse direction, 10 mM substrate, 10 mM pyruvate, 100 μM pyridoxyl 5′ phosphate, pH 7.5, 25° C., 4 h, L-alanine by RP-HPLC. The method, then:
A nucleotide sequence encoding an N-terminal His-tag was added to the genes from Chromobacterium violaceum and Rhodobacter sphaeroides encoding the ω-transaminases of SEQ ID NOs: 8 and 10 respectively (see FIG. 10) such that N-terminal HIS tagged ω-transaminases could be produced. Each of the resulting modified genes was cloned into a pET21a expression vector under control of the T7 promoter and each expression vector was transformed into a BL21[DE3] E. coli host. The resulting recombinant E. coli strains were cultivated at 37° C. in a 250 mL shake flask culture containing 50 mL LB media and antibiotic selection pressure, with shaking at 230 rpm. Each culture was induced overnight at 16° C. using 1 mM IPTG.
(§1) The pellet from each induced shake flask culture was harvested via centrifugation. Each pellet was resuspended and lysed via sonication. The cell debris was separated from the supernatant via centrifugation and the cell free extract was used immediately in enzyme activity assays.
Enzyme activity assays in the reverse direction (i.e., 5-aminopentanoate to glutarate semialdehyde) were performed in a buffer composed of a final concentration of 50 mM HEPES buffer (pH=7.5), 10 mM 5-aminopentanoate, 10 mM pyruvate and 100 μM pyridoxyl 5′ phosphate. Each enzyme activity assay reaction was initiated by adding cell free extract of the ω-transaminase gene product or the empty vector control to the assay buffer containing the 5-aminopentanoate and incubated at 25° C. for 4 h, with shaking at 250 rpm. The formation of L-alanine from pyruvate was quantified via RP-HPLC.
(§2) A nucleotide sequence encoding an N-terminal His-tag was added to the Chromobacterium violaceum, Pseudomonas aeruginosa, Pseudomonas syringae, Rhodobacter sphaeroide, Escherichia coli and Vibrio fluvialis genes encoding the ω-transaminases of SEQ ID NOs: 8-13, respectively (see FIG. 10) such that N-terminal HIS tagged ω-transaminases could be produced. The modified genes were cloned into a pET21a expression vector under the T7 promoter. Each expression vector was transformed into a BL21[DE3] E. coli host. Each resulting recombinant E. coli strain were cultivated at 37° C. in a 250 mL shake flask culture containing 50 mL LB media and antibiotic selection pressure, with shaking at 230 rpm. Each culture was induced overnight at 16° C. using 1 mM IPTG.
(§3) Enzyme activity assays in the reverse direction (i.e., 5-aminopentanol to 5-oxopentanol) were performed in a buffer composed of a final concentration of 50 mM HEPES buffer (pH=7.5), 10 mM 5-aminopentanol, 10 mM pyruvate, and 100 μM pyridoxyl 5′ phosphate. Each enzyme activity assay reaction was initiated by adding cell free extract of the ω-transaminase gene product or the empty vector control to the assay buffer containing the 5-aminopentanol and then incubated at 25° C. for 4 h, with shaking at 250 rpm. The formation of L-alanine was quantified via RP-HPLC.
as §2, with “and” for “Rhodobacter sphaeroide,”, “coli” for “coli and Vibrio fluvialis”, “8-10 and 12,” for “8-13,”
Enzyme activity assays in the reverse direction (i.e., cadaverine to 5-aminopentanal) were performed in a buffer composed of a final concentration of 50 mM HEPES buffer (pH=7.5), 10 mM cadaverine, 10 mM pyruvate, and 100 μM pyridoxyl 5′ phosphate. […]

For test [2], the system named is Pseudomonas aeruginosa ω-transaminase (SEQ ID NO: 9). The test is described as above. Type of test: biochemical. The conditions noted are these: for accepted as substrate as confirmed against the empty vector control: reverse direction, 10 mM substrate, 10 mM pyruvate, 100 μM pyridoxyl 5′ phosphate, pH 7.5, 25° C., 4 h, L-alanine by RP-HPLC; for accepted as substrate, concluded from the reversibility of the ω-transaminase activity: forward (amine-forming) direction, inferred from the reverse assay. The method, then:
as §2, §1, §3
as §2, with “and” for “Rhodobacter sphaeroide,”, “coli” for “coli and Vibrio fluvialis”, “8-10 and 12,” for “8-13,”
(§4) Enzyme activity assays in the reverse direction (i.e., cadaverine to 5-aminopentanal) were performed in a buffer composed of a final concentration of 50 mM HEPES buffer (pH=7.5), 10 mM cadaverine, 10 mM pyruvate, and 100 μM pyridoxyl 5′ phosphate. Each enzyme activity assay reaction was initiated by adding cell free extract of the ω-transaminase gene product or the empty vector control to the assay buffer containing the cadaverine and then incubated at 25° C. for 4 h, with shaking at 250 rpm. The formation of L-alanine was quantified via RP-HPLC.
(§5) The activity of the N-terminal His-tagged ω-transaminases of SEQ ID NOs: 8-13 (see Example 3, and FIG. 10) for converting 1-aminopentane to pentanal was assayed using a buffer composed of a final concentration of 50 mM HEPES buffer (pH=7.5), 10 mM 1-aminopentane, 10 mM pyruvate and 100 μM pyridoxyl 5′ phosphate. Each enzyme activity assay reaction was initiated by adding a cell free extract of the ω-transaminase or the empty vector control to the assay buffer containing the 1-aminopentane then incubated at 25° C. for 4 h, with shaking at 250 rpm. The formation of L-alanine was quantified via RP-HPLC.
The activity of the N-terminal His-tagged ω-transaminases of SEQ ID NOs: 8-13 (see Example 3, and FIG. 10) for converting 1-aminoheptane to heptanal was assayed using a buffer composed of a final concentration of 50 mM HEPES buffer (pH=7.5), 10 mM 1-aminoheptane, 10 mM pyruvate and 100 μM pyridoxyl 5′ phosphate. […]

For test [3], the target named is T1, Escherichia coli ω-transaminase (SEQ ID NO: 12) (Escherichia coli, UniProt P42588).
T1 construct: His-tag (N); made in house; host or cells: E. coli BL21[DE3], pET21a
The test is described as above. The conditions noted are these: for accepted as substrate as confirmed against the empty vector control: reverse direction, 10 mM substrate, 10 mM pyruvate, 100 μM pyridoxyl 5′ phosphate, pH 7.5, 25° C., 4 h, L-alanine by RP-HPLC; for accepted as substrate, concluded from the reversibility of the ω-transaminase activity: forward (amine-forming) direction, inferred from the reverse assay. Type of test: biochemical. The method, then:
as §2, §1, §3
as §2, with “and” for “Rhodobacter sphaeroide,”, “coli” for “coli and Vibrio fluvialis”, “8-10 and 12,” for “8-13,”
as §4
as §5, with “8, 10-13” for “8-13”, “N5-acetyl-1,5-diaminopentane” for “1-aminopentane”, “N5-acetyl-5-aminopentanal” for “pentanal”, “N5-acetyl-1,5-diaminopentane,” for “1-aminopentane,”
(§6) The activity of the N-terminal His-tagged ω-transaminases of SEQ ID NOs: 8-13 (see Example 3, and FIG. 10) for converting 1-aminopentane to pentanal was assayed using a buffer composed of a final concentration of 50 mM HEPES buffer (pH=7.5), 10 mM 1-aminopentane, 10 mM pyruvate and 100 μM pyridoxyl 5′ phosphate. […]

Test [4] has as its system Pseudomonas syringae ω-transaminase (SEQ ID NO: 10). The test is described as above. In kind it is biochemical. The conditions noted are these: for accepted as substrate as confirmed against the empty vector control: reverse direction, 10 mM substrate, 10 mM pyruvate, 100 μM pyridoxyl 5′ phosphate, pH 7.5, 25° C., 4 h, L-alanine by RP-HPLC; for accepted as substrate, concluded from the reversibility of the ω-transaminase activity: forward (amine-forming) direction, inferred from the reverse assay. The method, then: as §2, §1, §3
as §2, with “and” for “Rhodobacter sphaeroide,”, “coli” for “coli and Vibrio fluvialis”, “8-10 and 12,” for “8-13,”
as §4
as §5, with “8, 10-13” for “8-13”, “N5-acetyl-1,5-diaminopentane” for “1-aminopentane”, “N5-acetyl-5-aminopentanal” for “pentanal”, “N5-acetyl-1,5-diaminopentane,” for “1-aminopentane,”
as §6

For test [5], the system named is Rhodobacter sphaeroides ω-transaminase (SEQ ID NO: 11). Described as above. In kind it is biochemical. The conditions noted are these: for accepted as substrate as confirmed against the empty vector control: reverse direction, 10 mM substrate, 10 mM pyruvate, 100 μM pyridoxyl 5′ phosphate, pH 7.5, 25° C., 4 h, L-alanine by RP-HPLC; for accepted as substrate, concluded from the reversibility of the ω-transaminase activity: forward (amine-forming) direction, inferred from the reverse assay. The protocol: as §2, §1, §3
as §5, with “8, 10-13” for “8-13”, “N5-acetyl-1,5-diaminopentane” for “1-aminopentane”, “N5-acetyl-5-aminopentanal” for “pentanal”, “N5-acetyl-1,5-diaminopentane,” for “1-aminopentane,”
as §5
as §5, with “1-aminoheptane” for “1-aminopentane”, “heptanal” for “pentanal”, “1-aminoheptane,” for “1-aminopentane,”

Test [6] relates to Vibrio fluvialis ω-transaminase (SEQ ID NO: 13). The description is as above. The conditions noted are these: for accepted as substrate as confirmed against the empty vector control: reverse direction, 10 mM substrate, 10 mM pyruvate, 100 μM pyridoxyl 5′ phosphate, pH 7.5, 25° C., 4 h, L-alanine by RP-HPLC; for accepted as substrate, concluded from the reversibility of the ω-transaminase activity: forward (amine-forming) direction, inferred from the reverse assay. Type of test: biochemical. The protocol: as §2, §1, §3
as §5, with “8, 10-13” for “8-13”, “N5-acetyl-1,5-diaminopentane” for “1-aminopentane”, “N5-acetyl-5-aminopentanal” for “pentanal”, “N5-acetyl-1,5-diaminopentane,” for “1-aminopentane,”
as §5
as §5, with “1-aminoheptane” for “1-aminopentane”, “heptanal” for “pentanal”, “1-aminoheptane,” for “1-aminopentane,”

Test [7] concerns Chromobacterium violaceum ω-transaminase (SEQ ID NO: 8). The description is as above. Type of test: biochemical. The conditions noted are these: forward (amine-forming) direction, inferred from the reverse assay.
The subject of test [8] is acetylputrescine deacetylase from Micrococcus luteus K-11. The conditions noted are these: Suzuki et al., 1986; cited from earlier work.
The target in a further test is gene product of ygjG (Escherichia coli, UniProt P42588). The conditions noted are these: Samsonova et al., 2003; cited from earlier work.
gene product of ygjG, sequence (P42588 whole entry): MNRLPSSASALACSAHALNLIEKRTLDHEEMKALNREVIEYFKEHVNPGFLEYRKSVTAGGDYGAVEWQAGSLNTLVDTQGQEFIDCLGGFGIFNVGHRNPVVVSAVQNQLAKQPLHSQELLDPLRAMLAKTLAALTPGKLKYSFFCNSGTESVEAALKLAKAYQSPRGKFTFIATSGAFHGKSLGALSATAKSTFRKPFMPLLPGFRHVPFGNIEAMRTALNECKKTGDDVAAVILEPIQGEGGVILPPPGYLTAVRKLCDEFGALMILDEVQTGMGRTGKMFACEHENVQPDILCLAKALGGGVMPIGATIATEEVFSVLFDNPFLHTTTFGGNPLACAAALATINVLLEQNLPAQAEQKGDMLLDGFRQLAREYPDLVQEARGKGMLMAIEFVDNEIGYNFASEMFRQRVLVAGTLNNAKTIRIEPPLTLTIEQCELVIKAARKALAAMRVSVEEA

T1 sequence (P42588 whole entry): as above

In the case of `CCCCCCCN` [1-aminoheptane], the “accepted as substrate as confirmed against the empty vector control” value (shortened to “accepted as substrate as confirmed”) in test [1], in test [2], in test [3], in test [4], in [5] and in test [6] was “accepted” each time.

Regarding `CCCCCN` [1-aminopentane], the “accepted as substrate as confirmed” value in [1], in test [2], in test [3], in test [4], in [5] and in [6] was “accepted” each time.

As to `NCCCCC=O` [5-aminopentanal], the “accepted as substrate, concluded from the reversibility of the ω-transaminase activity” value (from here on “accepted as substrate, concluded”) in test [2], in [3], in [4] and in test [7] was “accept” each time.

For `NCCCCC(=O)O` [5-aminopentanoate], the “accepted as substrate as confirmed” value in test [1] is “accepted”.

As for `NCCCCCO` [5-aminopentanol], the “accepted as substrate as confirmed” value in test [1], in test [2], in test [3], in test [4], in [5] and in test [6] was “accepted” each time.

With `O=CCCCCO` [5-oxopentanol], the “accepted as substrate, concluded” value in test [2], in test [3], in [4], in test [5], in [6] and in test [7] was “accept” throughout.

Turning to `CC(=O)NCCCCCN` [N5-acetyl-1,5-diaminopentane], the “accepted as substrate as confirmed” value in [1], in test [3], in [4], in [5] and in test [6] was “accepted” each time.

Consider `CC(=O)NCCCCC=O` [N5-acetyl-5-aminopentanal], for which the “accepted as substrate, concluded” value in test [3], in [4], in test [5], in test [6] and in [7] was “accept” in each case.

For `CC(=O)NCCCCNCCCN` [N^8-acetylspermidine], the accepted as substrate result in [8] was “accepts”.

As for `CC(=O)NCCCCCN` [acetylcadaverine], in test [8], the accepted as substrate entry was “accepts”.

For the compound `CC(=O)NCCCCN` [acetylputrescine], the accepted as substrate result in test [8] was “accepts”.

Consider `NCCCCN` [putrescine], for which the “accepted as diamine substrate” value on gene product of ygjG is listed as “accepts”.

As to `NCCCCNCCCN` [spermidine], the “accepted as diamine substrate” value on gene product of ygjG was “accepts”.

(Values after patent publication US9920339B2, “Methods, reagents and cells for biosynthesizing compounds” (INVISTA North America S.á r.l., priority 2014, dated 2018).)
